Reference: US20200255807A1, “IN VITRO PROPAGATION OF PRIMARY CANCER CELLS” (University of Cape Town, priority 2017, published 2020)

System: primary breast cancer cells
Assay: Isolation of primary breast cancer cells from biopsy samples by digestion with collagenase II plus an additional enzyme (cell yield and viability)
Format: cell-based, human
Details: for Mean fold increase in cell number (collagenase II = 1): additional enzyme used in conjunction with 5 μg/ml collagenase II, 45 min at 37° C., compared to collagenase II alone
Procedure: A fresh primary breast cancer tumour biopsy sample (10-200 mg of tissue) was placed in 5 ml Hanks Balanced Salts (HBSS; Lonza, Germany; pH=7.5) on ice and it was transported immediately to the laboratory. The biopsy sample was weighed and then cut into 1 mm by 1 mm pieces using a scalpel in a BSL2 cabinet. The cut pieces were placed in 1 ml HBSS containing 5 μg/ml collagenase II (Ambion, USA) with or without 5 U/ml hyaluronidase, dispase II or papain (10 mg/ml) and the tissue was digested by incubation at 37° C. with rotation for 45 min. After the incubation time, a […] cell strainer (Becton Dickinson, USA) was placed into a 50 ml tube. The undigested material was pipetted up and down 10 times and then placed onto the cell strainer. The cell strainer was washed with 10 ml of HBSS and the cells were pelleted at 500×g for 5 min. The pelleted cells were then washed with an additional 10 ml of HBSS.
The pelleted cells were re-suspended in DMEM/F12 containing 10% human A/B serum (Western Province Blood Transfusion Services), 100 IU penicillin/streptomycin (Lonza, Germany), 0.1 mM sodium pyruvate (Lonza, Germany), […] (Sigma, Germany), […] (Sigma, Germany), 5 mM ethanolamine (Sigma, Germany), 5 μg/ml selenium (Sigma, Germany) and 10 nM estradiol (Sigma, Germany). The cells were then plated into a multi well plate or dish, which was dependent on the cell number. The breast cancer cells were incubated at 37° C. for 2 days and the medium was replaced with fresh medium without 10 nM estradiol, but with 100 nM cortisol (Sigma, Germany). The medium was replaced every 2 days with fresh medium containing half the concentration of cortisol used on the previous day. When the cells were confluent they were split using a standard procedure (trypsin) into a larger culture vessel.

Hyaluronidase
Mean fold increase in cell number (collagenase II = 1) (breast biopsy samples): 2.7 (SD = 1.2-4.5) fold | Mean fold increase in cell number (collagenase II = 1) (breast biopsy samples, listed as hyaluronidase): 2.7 fold | Mean cell viability (additional enzyme used in conjunction with collagenase II for cell isolation, breast biopsy samples (Table 1)): 69% | mean viability of the cells (enzyme used in conjunction with collagenase II, breast biopsy samples): 69%

B1: Papain: protease enzyme (10 mg/ml) added with collagenase II to the isolation buffer for digesting tumour biopsy tissue (protein, UniProt P00784 134-345, looked up)
Papain: IPEYVDWRQKGAVTPVKNQGSCGSCWAFSAVVTIEGIIKIRTGNLNEYSEQELLDCDRRSYGCNGGYPWSALQLVAQYGIHYRNTYPYEGVQRYCRSREKGPYAAKTDGVRQVQPYNEGALLYSIANQPVSVVLEAAGKDFQLYRGGIFVGPCGNKVDHAVAAVGYGPNYILIKNSWGTGWGENGYIRIKRGTGNSYGVCGLYTSSFYPVKN
Mean fold increase in cell number (collagenase II = 1) (breast biopsy samples): 0.7 (SD = 0.4-0.9) fold | Mean fold increase in cell number (collagenase II = 1) (breast biopsy samples, listed as papain): 0.7 fold
